PubChem BioAssay (NCI)
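Method: 48-hour compound exposure of cells in 96-well plates, five concentrations, linear interpolation of endpoints. TGI denotes the concentration required for complete inhibition of growth.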

Assays:
Assay in all cases: growth of human tumour cells (NCI), 48 h
786-0 renal = test system: 786-0 renal
A498 renal = test system: A498 renal
A549 NSCLC = test system: A549 NSCLC
ACHN renal = test system: ACHN renal
CAKI-1 renal = test system: CAKI-1 renal
CCRF-CEM leukemia = test system: CCRF-CEM leukemia
COLO 205 colon = test system: COLO 205 colon
DLD-1 colon = test system: DLD-1 colon
DMS 114 small cell lung = test system: DMS 114 small cell lung
DMS 273 small cell lung = test system: DMS 273 small cell lung
EKVX NSCLC = test system: EKVX NSCLC
HCC-2998 colon = test system: HCC-2998 colon
HCT-116 colon = test system: HCT-116 colon
HCT-15 colon = test system: HCT-15 colon
HOP-62 NSCLC = test system: HOP-62 NSCLC
HT29 colon = test system: HT29 colon
IGROV1 ovarian = test system: IGROV1 ovarian
K-562 leukemia = test system: K-562 leukemia
KM12 colon = test system: KM12 colon
KM20L2 colon = test system: KM20L2 colon
LOX IMVI melanoma = test system: LOX IMVI melanoma
LXFL 529 NSCLC = test system: LXFL 529 NSCLC
M14 melanoma = test system: M14 melanoma
M19-MEL melanoma = test system: M19-MEL melanoma
MALME-3M melanoma = test system: MALME-3M melanoma
MOLT-4 leukemia = test system: MOLT-4 leukemia
NCI-H226 lung = test system: NCI-H226 lung
NCI-H23 lung = test system: NCI-H23 lung
NCI-H460 lung = test system: NCI-H460 lung
NCI-H522 lung = test system: NCI-H522 lung
OVCAR-3 ovarian = test system: OVCAR-3 ovarian
OVCAR-4 ovarian = test system: OVCAR-4 ovarian
OVCAR-5 ovarian = test system: OVCAR-5 ovarian
OVCAR-8 ovarian = test system: OVCAR-8 ovarian
RPMI-8226 leukemia = test system: RPMI-8226 leukemia
RXF 393 renal = test system: RXF 393 renal
SF-268 CNS = test system: SF-268 CNS
SF-295 CNS = test system: SF-295 CNS
SF-539 CNS = test system: SF-539 CNS
SK-MEL-2 melanoma = test system: SK-MEL-2 melanoma
SK-MEL-28 melanoma = test system: SK-MEL-28 melanoma
SK-MEL-5 melanoma = test system: SK-MEL-5 melanoma
SK-OV-3 ovarian = test system: SK-OV-3 ovarian
SN12C renal = test system: SN12C renal
SNB-19 CNS = test system: SNB-19 CNS
SNB-75 CNS = test system: SNB-75 CNS
SNB-78 CNS = test system: SNB-78 CNS
SW-620 colon = test system: SW-620 colon
TK-10 renal = test system: TK-10 renal
U251 CNS = test system: U251 CNS
UACC-257 melanoma = test system: UACC-257 melanoma
UACC-62 melanoma = test system: UACC-62 melanoma
UO-31 renal = test system: UO-31 renal
XF 498 CNS = test system: XF 498 CNS
HL-60(TB) leukemia = test system: HL-60(TB) leukemia
HOP-92 NSCLC = test system: HOP-92 NSCLC
SR leukemia = test system: SR leukemia

Nc1c2ccccc2nc2c(C(=O)Nc3ccc(S(N)(=O)=O)cc3)cccc12
TGI (786-0 renal): > 100 µM | TGI (A498 renal): > 100 µM | TGI (A549 NSCLC): > 100 µM | TGI (ACHN renal): > 100 µM | TGI (CAKI-1 renal): > 100 µM | TGI (CCRF-CEM leukemia): > 100 µM | TGI (COLO 205 colon): > 100 µM | TGI (DLD-1 colon): > 100 µM | TGI (DMS 114 small cell lung): > 100 µM | TGI (DMS 273 small cell lung): > 100 µM | TGI (EKVX NSCLC): > 100 µM | TGI (HCC-2998 colon): > 100 µM | TGI (HCT-116 colon): > 100 µM | TGI (HCT-15 colon): > 100 µM | TGI (HOP-62 NSCLC): > 100 µM | TGI (HT29 colon): > 100 µM | TGI (IGROV1 ovarian): > 100 µM | TGI (K-562 leukemia): > 100 µM | TGI (KM12 colon): > 100 µM | TGI (KM20L2 colon): > 100 µM | TGI (LOX IMVI melanoma): > 100 µM | TGI (LXFL 529 NSCLC): > 100 µM | TGI (M14 melanoma): > 100 µM | TGI (M19-MEL melanoma): > 100 µM | TGI (MALME-3M melanoma): > 100 µM | TGI (MOLT-4 leukemia): 58.6 µM | TGI (NCI-H226 lung): > 100 µM | TGI (NCI-H23 lung): > 100 µM | TGI (NCI-H460 lung): > 100 µM | TGI (NCI-H522 lung): > 100 µM | TGI (OVCAR-3 ovarian): > 100 µM | TGI (OVCAR-4 ovarian): > 100 µM | TGI (OVCAR-5 ovarian): > 100 µM | TGI (OVCAR-8 ovarian): > 100 µM | TGI (RPMI-8226 leukemia): > 100 µM | TGI (RXF 393 renal): > 100 µM | TGI (SF-268 CNS): > 100 µM | TGI (SF-295 CNS): > 100 µM | TGI (SF-539 CNS): > 100 µM | TGI (SK-MEL-2 melanoma): > 100 µM | TGI (SK-MEL-28 melanoma): > 100 µM | TGI (SK-MEL-5 melanoma): > 100 µM | TGI (SK-OV-3 ovarian): > 100 µM | TGI (SN12C renal): > 100 µM | TGI (SNB-19 CNS): > 100 µM | TGI (SNB-75 CNS): > 100 µM | TGI (SNB-78 CNS): > 100 µM | TGI (SW-620 colon): > 100 µM | TGI (TK-10 renal): > 100 µM | TGI (U251 CNS): > 100 µM | TGI (UACC-257 melanoma): > 100 µM | TGI (UACC-62 melanoma): > 100 µM | TGI (UO-31 renal): > 100 µM | TGI (XF 498 CNS): > 100 µM

Cc1ncc(CI)c(CI)c1O
TGI (786-0 renal): 35.3 µM | TGI (A498 renal): > 100 µM | TGI (CAKI-1 renal): > 100 µM | TGI (CCRF-CEM leukemia): 23.2 µM | TGI (COLO 205 colon): > 100 µM | TGI (DLD-1 colon): 55.8 µM | TGI (DMS 114 small cell lung): > 100 µM | TGI (DMS 273 small cell lung): 32.1 µM | TGI (HCC-2998 colon): 33.3 µM | TGI (HCT-116 colon): 31.4 µM | TGI (HL-60(TB) leukemia): 5.29 µM | TGI (HOP-62 NSCLC): 35.3 µM | TGI (HOP-92 NSCLC): > 100 µM | TGI (IGROV1 ovarian): > 100 µM | TGI (K-562 leukemia): 31.5 µM | TGI (LXFL 529 NSCLC): > 100 µM | TGI (M14 melanoma): > 100 µM | TGI (M19-MEL melanoma): > 100 µM | TGI (MALME-3M melanoma): 42.5 µM | TGI (MOLT-4 leukemia): 41.6 µM | TGI (NCI-H226 lung): 6.1 µM | TGI (NCI-H23 lung): 48.2 µM | TGI (NCI-H460 lung): > 100 µM | TGI (NCI-H522 lung): 12.7 µM | TGI (OVCAR-4 ovarian): > 100 µM | TGI (RPMI-8226 leukemia): 31.4 µM | TGI (SF-268 CNS): 54.7 µM | TGI (SF-539 CNS): 43.8 µM | TGI (SK-MEL-2 melanoma): 42.4 µM | TGI (SK-MEL-28 melanoma): 44.6 µM | TGI (SK-OV-3 ovarian): > 100 µM | TGI (SN12C renal): 35.2 µM | TGI (SNB-75 CNS): 41.2 µM | TGI (SNB-78 CNS): > 100 µM | TGI (SR leukemia): 36.7 µM | TGI (UACC-62 melanoma): > 100 µM | TGI (UO-31 renal): 6.28 µM | TGI (XF 498 CNS): 38.4 µM
